Measurements as given in ChEMBL document CHEMBL4270563, “Neurogenic and neuroprotective donepezil-flavonoid hybrids with sigma-1 affinity and inhibition of key enzymes in Alzheimer's disease” (Eur J Med Chem, 2018).
Activity calls are given as the source filed them. The calls are words filed in the database; no cut-off is given here.

Legend:
Cholinesterase = Cholinesterase (Homo sapiens, UniProt P06276); test: Inhibition of human serum BuChE using butyrylthiocholine as substrate pretreated for 5 mins followed by substrate addition and measured for 5 mins by Ellman's method
Chain of Cholinesterase (P06276 whole entry): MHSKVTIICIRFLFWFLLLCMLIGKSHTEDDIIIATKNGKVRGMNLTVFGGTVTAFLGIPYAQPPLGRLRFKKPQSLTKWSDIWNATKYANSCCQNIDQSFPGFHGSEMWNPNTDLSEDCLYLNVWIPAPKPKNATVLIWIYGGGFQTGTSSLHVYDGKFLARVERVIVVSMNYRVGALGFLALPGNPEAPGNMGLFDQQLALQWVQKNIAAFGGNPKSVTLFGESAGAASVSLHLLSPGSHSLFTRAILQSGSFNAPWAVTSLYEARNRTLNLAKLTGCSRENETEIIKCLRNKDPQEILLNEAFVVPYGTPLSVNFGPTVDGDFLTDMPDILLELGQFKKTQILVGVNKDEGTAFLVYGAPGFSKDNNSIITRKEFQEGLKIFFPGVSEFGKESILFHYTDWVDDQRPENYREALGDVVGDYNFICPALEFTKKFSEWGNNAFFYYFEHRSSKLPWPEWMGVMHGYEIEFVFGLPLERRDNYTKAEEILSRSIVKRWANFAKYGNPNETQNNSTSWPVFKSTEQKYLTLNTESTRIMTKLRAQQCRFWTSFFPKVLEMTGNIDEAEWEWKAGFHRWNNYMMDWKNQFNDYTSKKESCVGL

[1] = Antioxidant activity assessed as trolox equivalent of AAPH-induced radical scavenging activity pretreated for 15 mins followed by APPH challenge measured every minute for 80 mins by ORAC-FL assay; type: functional
in vitro = conditions: PAMPA, pH 7.4
Description: Permeability of the compound in pH 7.4 PBS by PAMPA-BBB assay

Homo sapiens = organism: Homo sapiens; test: Selectivity index, ratio of IC50 for human serum BuChE to IC50 for recombinant human AChE expressed in HEK293 cells; type: cell-based
Acetylcholinesterase [2] = target: T1, Acetylcholinesterase (Homo sapiens, UniProt P22303); test: Inhibition of recombinant human AChE expressed in HEK293 cells using acetylthiocholine iodide as substrate pretreated for 5 mins followed by substrate addition and measured for 5 mins by Ellman's method
T1 sequence (P22303 whole entry): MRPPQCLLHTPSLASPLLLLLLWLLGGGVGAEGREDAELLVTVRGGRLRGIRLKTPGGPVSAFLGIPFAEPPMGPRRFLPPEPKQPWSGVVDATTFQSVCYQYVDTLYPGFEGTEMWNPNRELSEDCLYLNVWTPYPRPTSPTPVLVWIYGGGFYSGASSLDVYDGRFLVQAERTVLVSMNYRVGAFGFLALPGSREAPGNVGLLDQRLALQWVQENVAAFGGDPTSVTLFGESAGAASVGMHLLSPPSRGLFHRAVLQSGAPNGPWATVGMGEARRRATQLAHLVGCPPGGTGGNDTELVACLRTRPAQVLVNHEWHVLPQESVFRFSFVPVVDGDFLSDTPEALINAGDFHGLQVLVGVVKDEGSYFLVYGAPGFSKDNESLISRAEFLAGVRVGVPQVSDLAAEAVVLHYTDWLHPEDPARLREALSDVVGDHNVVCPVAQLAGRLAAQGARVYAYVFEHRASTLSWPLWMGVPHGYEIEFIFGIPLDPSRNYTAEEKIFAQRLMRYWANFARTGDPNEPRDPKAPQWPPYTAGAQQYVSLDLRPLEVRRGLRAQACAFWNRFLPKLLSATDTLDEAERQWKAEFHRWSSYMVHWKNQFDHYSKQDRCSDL

[3] = target: T2, Polyunsaturated fatty acid 5-lipoxygenase (Homo sapiens, UniProt P09917); test: Inhibition of human 5-lipoxygenase using arachidonic acid as substrate pretreated for 10 mins followed by substrate and ATP addition and measured after 20 mins by H2DCFDA probe based fluorescence assay
T2 sequence (P09917 whole entry): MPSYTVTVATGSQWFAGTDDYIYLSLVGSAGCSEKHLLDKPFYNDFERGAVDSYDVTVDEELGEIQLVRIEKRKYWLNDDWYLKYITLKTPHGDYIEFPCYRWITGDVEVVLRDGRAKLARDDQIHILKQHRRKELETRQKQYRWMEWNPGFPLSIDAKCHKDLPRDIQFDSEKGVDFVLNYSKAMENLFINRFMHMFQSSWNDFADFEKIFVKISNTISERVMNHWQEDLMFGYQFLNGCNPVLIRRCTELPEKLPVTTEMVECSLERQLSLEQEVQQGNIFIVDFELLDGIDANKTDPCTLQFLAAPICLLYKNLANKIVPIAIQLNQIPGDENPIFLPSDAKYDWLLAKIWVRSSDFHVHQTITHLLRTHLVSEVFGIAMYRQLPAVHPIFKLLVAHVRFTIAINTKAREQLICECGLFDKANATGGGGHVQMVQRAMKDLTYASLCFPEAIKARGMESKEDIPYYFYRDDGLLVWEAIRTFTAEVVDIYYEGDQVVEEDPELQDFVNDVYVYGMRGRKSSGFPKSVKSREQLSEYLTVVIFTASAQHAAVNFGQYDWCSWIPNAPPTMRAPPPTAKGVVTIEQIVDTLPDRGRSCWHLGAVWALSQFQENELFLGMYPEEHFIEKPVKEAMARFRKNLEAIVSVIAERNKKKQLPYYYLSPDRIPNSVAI

[4] = Selectivity ratio of Ki for displacement of [3H]DTG from sigma2 receptor in rat liver membranes to Ki for displacement of (+)-[3H]pentazocine from guinea pig brain membrane sigma1 receptor; type: cell membranes
[5] = target: Sigma non-opioid intracellular receptor 1 (Cavia porcellus, UniProt Q60492); test: Displacement of (+)-[3H]pentazocine from guinea pig brain membrane sigma1 receptor by liquid scintillation counting method
Chain of Sigma non-opioid intracellular receptor 1 (Q60492 whole entry): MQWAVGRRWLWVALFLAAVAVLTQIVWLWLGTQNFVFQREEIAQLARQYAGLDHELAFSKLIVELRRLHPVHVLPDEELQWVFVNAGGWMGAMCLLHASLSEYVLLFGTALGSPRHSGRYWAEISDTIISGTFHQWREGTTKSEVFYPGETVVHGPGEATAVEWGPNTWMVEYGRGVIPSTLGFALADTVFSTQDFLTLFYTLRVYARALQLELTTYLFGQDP

[6] = target: T3, Amine oxidase [flavin-containing] B (Homo sapiens, UniProt P27338); test: biochemical; type: cell-based
T3 sequence (P27338 whole entry): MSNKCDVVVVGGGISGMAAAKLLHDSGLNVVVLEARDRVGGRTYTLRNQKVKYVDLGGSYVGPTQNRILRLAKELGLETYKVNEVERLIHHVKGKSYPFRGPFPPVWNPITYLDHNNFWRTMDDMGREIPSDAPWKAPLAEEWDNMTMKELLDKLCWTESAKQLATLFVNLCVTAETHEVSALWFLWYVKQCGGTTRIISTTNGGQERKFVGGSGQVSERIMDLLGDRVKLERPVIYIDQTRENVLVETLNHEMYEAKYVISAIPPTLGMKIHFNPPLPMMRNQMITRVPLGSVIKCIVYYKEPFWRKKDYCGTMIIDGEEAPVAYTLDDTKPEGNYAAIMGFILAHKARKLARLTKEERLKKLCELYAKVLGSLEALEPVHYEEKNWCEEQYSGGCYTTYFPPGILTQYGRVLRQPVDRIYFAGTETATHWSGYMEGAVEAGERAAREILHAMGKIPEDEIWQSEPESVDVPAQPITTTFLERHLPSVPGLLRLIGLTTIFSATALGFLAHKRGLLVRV
Description: Inhibition of recombinant human MAO-B expressed in baculovirus infected BTI insect cells using p-tyramine as substrate pretreated for 15 mins followed by substrate addition by horse-radish peroxidase/amplex red-based fluorescence method

[7] = target: T4, Sigma intracellular receptor 2 (Rattus norvegicus, UniProt Q5U3Y7); test: Displacement of [3H]DTG from sigma2 receptor in rat liver membranes by liquid scintillation counting method; type: cell membranes, Membrane
T4 sequence (Q5U3Y7 whole entry): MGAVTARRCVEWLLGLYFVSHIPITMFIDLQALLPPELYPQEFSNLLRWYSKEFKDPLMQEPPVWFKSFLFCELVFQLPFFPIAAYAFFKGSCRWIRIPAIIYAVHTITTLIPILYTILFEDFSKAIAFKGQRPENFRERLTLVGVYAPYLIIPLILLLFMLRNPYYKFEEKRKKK

[8] = target: T5, Amine oxidase [flavin-containing] A (Homo sapiens, UniProt P21397); test: Inhibition of recombinant human MAO-A expressed in baculovirus infected BTI insect cells using p-tyramine as substrate pretreated for 15 mins followed by substrate addition by horse-radish peroxidase/amplex red-based fluorescence method
T5 sequence (P21397 whole entry): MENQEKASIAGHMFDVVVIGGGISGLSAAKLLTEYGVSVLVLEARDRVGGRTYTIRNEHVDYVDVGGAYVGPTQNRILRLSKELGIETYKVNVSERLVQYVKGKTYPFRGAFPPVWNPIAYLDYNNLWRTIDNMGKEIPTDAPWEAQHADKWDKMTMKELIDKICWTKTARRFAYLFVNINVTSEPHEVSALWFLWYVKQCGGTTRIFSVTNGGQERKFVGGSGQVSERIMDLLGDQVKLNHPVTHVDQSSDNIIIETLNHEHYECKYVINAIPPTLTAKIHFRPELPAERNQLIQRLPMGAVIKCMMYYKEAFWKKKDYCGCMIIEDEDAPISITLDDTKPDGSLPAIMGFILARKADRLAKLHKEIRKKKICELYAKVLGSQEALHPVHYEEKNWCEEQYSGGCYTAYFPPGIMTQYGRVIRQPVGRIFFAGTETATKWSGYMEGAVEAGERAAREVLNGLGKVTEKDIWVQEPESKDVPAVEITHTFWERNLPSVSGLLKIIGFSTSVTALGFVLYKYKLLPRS

Acetylcholinesterase [9] = target: T1, Acetylcholinesterase; test: Inhibition of recombinant human AChE expressed in HEK293 cells using varying levels of acetylthiocholine iodide as substrate by Lineweaver-burk plot analysis
[10] = target: T6, Polyunsaturated fatty acid 5-lipoxygenase (Homo sapiens) (UniProt P09917); test: Inhibition of human 5-lipoxygenase at 10 uM using arachidonic acid as substrate pretreated for 10 mins followed by substrate and ATP addition and measured after 20 mins by […] probe based fluorescence assay relative to control
T6 sequence (whole entry): T2 sequence (P09917 whole entry)

[11] = Antioxidant activity assessed as trolox equivalent of AAPH-induced radical scavenging activity at 10 uM pretreated for 15 mins followed by APPH challenge measured every minute for 80 mins by ORAC-FL assay; type: functional

O=C(NCCC1CCN(Cc2ccccc2)CC1)c1cc(=O)c2c(O)cc(O)cc2o1
IC50 (Cholinesterase): > 10 µM
Activity (umolequiv/umol) [1]: 0.8
Papp (in vitro): 3.7 ×10⁻⁶ cm/s
Ratio IC50 (Homo sapiens): > 17
IC50 (Acetylcholinesterase [2]): 0.58 µM
IC50 [3]: 95.1 µM

O=C(NCCCC1CCN(Cc2ccccc2)CC1)c1cc(=O)c2cc(O)ccc2o1
IC50 (Cholinesterase): > 10 µM
Activity (umolequiv/umol) [1]: 1.3
Ratio Ki [4]: 87
Papp (in vitro): 4.5 ×10⁻⁶ cm/s
Ki [5]: 0.00348 µM
IC50 [6]: > 100 µM
Ratio IC50 (Homo sapiens): > 435
IC50 (Acetylcholinesterase [2]): 0.023 µM
IC50 [3]: 15.1 µM
Ki [7]: 0.301 µM
IC50 [8]: > 100 µM
Ki (Acetylcholinesterase [9]): 0.011 µM

COc1ccc2oc(C(=O)NCCC3CCN(Cc4ccccc4)CC3)cc(=O)c2c1
IC50 (Cholinesterase): 6.5 µM
Papp (in vitro): 10 ×10⁻⁶ cm/s
IC50 [6]: > 100 µM
Ratio IC50 (Homo sapiens): 38
IC50 (Acetylcholinesterase [2]): 0.17 µM
IC50 [3]: > 100 µM
inhibition [10]: 33%
IC50 [8]: > 100 µM

O=C(NCCC1CCN(Cc2ccccc2)CC1)c1cc(=O)c2ccccc2o1
IC50 (Cholinesterase): 5.09 µM
Papp (in vitro): 6.7 ×10⁻⁶ cm/s
Ratio IC50 (Homo sapiens): 46
IC50 (Acetylcholinesterase [2]): 0.11 µM
IC50 [3]: > 100 µM
inhibition [10]: 24%
Ki (Acetylcholinesterase [9]): 0.057 µM

COc1cc(OC)c2c(=O)cc(C(=O)NCCC3CCN(Cc4ccccc4)CC3)oc2c1
IC50 (Cholinesterase): 6.3 µM
Papp (in vitro): 8.8 ×10⁻⁶ cm/s
Ratio IC50 (Homo sapiens): 20
IC50 (Acetylcholinesterase [2]): 0.32 µM

Nc1ccc2oc(C(=O)NCCC3CCN(Cc4ccccc4)CC3)cc(=O)c2c1
IC50 (Cholinesterase): 4.3 µM
Activity (umolequiv/umol) [1]: 0.9
Ratio Ki [4]: 290
Papp (in vitro): 7.6 ×10⁻⁶ cm/s
Ki [5]: 0.00145 µM
IC50 [6]: > 100 µM
Ratio IC50 (Homo sapiens): 105
IC50 (Acetylcholinesterase [2]): 0.041 µM
IC50 [3]: 28.9 µM
Ki [7]: 0.421 µM
IC50 [8]: > 100 µM
Ki (Acetylcholinesterase [9]): 0.062 µM

O=C(NCCC1CCN(Cc2ccccc2)CC1)c1cc(=O)c2cc(O)c(O)cc2o1
IC50 (Cholinesterase): > 10 µM
Activity (umolequiv/umol) [1]: 1.7
Ratio Ki [4]: 10
Papp (in vitro): 3.2 ×10⁻⁶ cm/s
Ki [5]: 0.027 µM
IC50 [6]: 37.9 µM
Ratio IC50 (Homo sapiens): > 2.4
IC50 (Acetylcholinesterase [2]): 4.13 µM
IC50 [3]: 4.2 µM
Ki [7]: 0.278 µM
IC50 [8]: 70.5 µM

COc1cc2oc(C(=O)NCCCC3CCN(Cc4ccccc4)CC3)cc(=O)c2cc1OC
IC50 (Cholinesterase): > 10 µM
Papp (in vitro): 5 ×10⁻⁶ cm/s
IC50 [6]: > 100 µM
Ratio IC50 (Homo sapiens): > 91
IC50 (Acetylcholinesterase [2]): 0.11 µM
IC50 [3]: > 100 µM
Activity [11]: inactive
inhibition [10]: 48%
IC50 [8]: > 100 µM
Ki (Acetylcholinesterase [9]): 0.021 µM

COc1ccc2c(=O)cc(C(=O)NCCC3CCN(Cc4ccccc4)CC3)[nH]c2c1
IC50 (Cholinesterase): > 10 µM
Ratio Ki [4]: 8
Papp (in vitro): 10.9 ×10⁻⁶ cm/s
Ki [5]: 0.0452 µM
IC50 [6]: 56.4 µM
Ratio IC50 (Homo sapiens): > 22
IC50 (Acetylcholinesterase [2]): 0.45 µM
IC50 [3]: > 100 µM
Activity [11]: inactive
Ki [7]: 0.376 µM
inhibition [10]: 31%
IC50 [8]: 72.7 µM

COc1ccc2oc(C(=O)NCC3CCN(Cc4ccccc4)CC3)cc(=O)c2c1
IC50 (Cholinesterase): > 10 µM
Papp (in vitro): 6.8 ×10⁻⁶ cm/s
Ratio IC50 (Homo sapiens): > 2.8
IC50 (Acetylcholinesterase [2]): 3.61 µM

O=C(NC1CCN(Cc2ccccc2)CC1)c1cc(=O)c2cc(O)ccc2o1
IC50 (Cholinesterase): > 10 µM
Papp (in vitro): 1.9 ×10⁻⁶ cm/s
Ratio IC50 (Homo sapiens): > 4.2
IC50 (Acetylcholinesterase [2]): 2.36 µM
IC50 [3]: > 100 µM
inhibition [10]: 48%
